Test results reported in the supplement of paper PMC10307832.

What was measured:
Assay in all cases: relative viability (nuclei count vs DMSO), 5 days (fraction); higher = more cells survive
[1] = compound: C1CSC2=C(C(=O)N1)SC3=C2C=C(C=C3)O [kb NB 142-70] + Nc1ncn([C@H]2C[C@H](O)[C@@H](CO)O2)c(=O)n1 [Decitabine] (partner 2 µM)
Procedure, shortened: (§1)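 Relative viability divides the nuclei count in treated wells by that in vehicle wells. Lung cancer cell lines were seeded in 1536-well plates, dosed by pin tool the next day, and fixed and stained after 5 days in one step with final 0.05% Triton X-100, 1% formaldehyde and 1 ug/ml Hoechst. Dosing was a single drug or a fixed anchor-drug dose plus five library-drug doses (not always all listed) in √10 steps, and values are medians of duplicate plates imaged at 4×.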

kb NB 142-70 + Alpelisib = compound: C1CSC2=C(C(=O)N1)SC3=C2C=C(C=C3)O [kb NB 142-70] + Cc1nc(NC(=O)N2CCC[C@H]2C(N)=O)sc1-c1ccnc(C(C)(C)C(F)(F)F)c1 [Alpelisib] (partner 2 µM)
Procedure, shortened: as §1

[2] = compound: NCC(=O)Nc1ccc(-n2nc(C(F)(F)F)cc2-c2ccc3c(ccc4ccccc43)c2)cc1 + O=C(CCCCCCC(=O)Nc1ccccc1)NO [Vorinostat] (partner 1 µM)
Procedure, shortened: as §1

[3] = compound: NCC(=O)Nc1ccc(-n2nc(C(F)(F)F)cc2-c2ccc3c(ccc4ccccc43)c2)cc1 + CS(=O)(=O)CCNCc1ccc(-c2ccc3ncnc(Nc4ccc(OCc5cccc(F)c5)c(Cl)c4)c3c2)o1 [Lapatinib] (partner 2 µM)
Procedure, shortened: as §1

[4] = compound: C1CSC2=C(C(=O)N1)SC3=C2C=C(C=C3)O [kb NB 142-70] + N=C(N)NC(=N)NCCc1ccccc1 [Phenformin] (partner 250 µM)
Procedure, shortened: as §1

Cell Line	relative viability ([1]; first compound 0.1 µM)	relative viability ([1]; first compound 1 µM)	relative viability ([1]; first compound 3.162 µM)	relative viability (kb NB 142-70 + Alpelisib; first compound 0.1 µM)	relative viability (kb NB 142-70 + Alpelisib; first compound 1 µM)	relative viability (kb NB 142-70 + Alpelisib; first compound 3.162 µM)	relative viability ([2]; first compound 0.02 µM)	relative viability ([2]; first compound 0.06325 µM)	relative viability ([2]; first compound 0.2 µM)	relative viability ([2]; first compound 0.6325 µM)	relative viability ([2]; first compound 2 µM)	relative viability ([3]; first compound 0.02 µM)	relative viability ([3]; first compound 0.06325 µM)	relative viability ([3]; first compound 0.2 µM)	relative viability ([3]; first compound 0.6325 µM)	relative viability ([3]; first compound 2 µM)	relative viability ([4]; first compound 0.1 µM)	relative viability ([4]; first compound 1 µM)	relative viability ([4]; first compound 3.162 µM)
HOP-62	0.217	0.203	0.226	1.18	0.777	0.937	0.536	0.534	0.668	0.501	0.7	1.06	0.913	0.998	0.959	1.14	0.666	0.663	0.534
LC-2-ad	0.798	0.769	0.772	0.858	0.958	0.813	0.68	0.757	0.769	0.673	0.76	0.967	0.932	1.02	0.96	1.06	0.618	0.536	0.458
LCLC-97TM1	0.268	0.205	0.135	0.236	0.245	0.181	0.596	0.713	0.699	0.69	0.637	0.816	1.13	–	0.981	0.893	0.407	0.462	0.416
LK-2	0.37	0.282	0.195	1.1	0.72	0.438	0.445	0.279	0.244	0.288	0.256	0.966	1.06	0.884	1	0.874	0.5	0.403	0.318
LOU-NH91	0.83	0.854	0.61	0.705	0.675	0.492	0.895	0.977	0.917	0.872	1.01	0.848	0.678	0.781	0.797	0.767	0.615	0.741	0.632
LU99A	1.09	0.9	0.708	0.517	0.499	0.354	0.415	0.588	0.519	0.56	0.535	0.943	1.13	1.07	0.987	0.944	0.789	0.666	0.722
LXF-289	0.392	0.369	0.365	1.03	1.02	0.917	0.737	0.91	0.777	0.731	0.787	0.953	0.953	0.916	0.891	0.887	0.526	0.526	0.457
NCI-H23	0.34	0.266	0.251	0.553	0.586	0.315	0.583	0.626	0.644	0.573	0.555	1.18	0.96	1.12	1.12	0.955	0.794	0.732	0.53
NCI-H322M	0.675	0.72	0.616	0.813	0.815	0.882	0.993	0.957	0.836	0.927	0.984	0.617	0.62	0.681	0.561	0.558	0.755	0.795	0.86
NCI-H358	0.226	0.148	0.0899	0.885	0.578	0.131	0.735	0.728	0.694	0.768	0.653	0.553	0.323	0.41	0.528	0.491	0.279	0.187	0.0752
NCI-H460	0.538	0.606	0.354	0.521	0.435	0.244	0.707	0.662	0.687	0.737	0.661	0.965	0.956	0.991	0.845	0.576	0.55	0.596	0.347
NCI-H520	0.506	0.43	0.357	0.728	0.961	0.513	0.631	0.779	0.873	0.77	0.763	0.995	0.869	0.935	0.938	0.963	0.57	0.515	0.324
NCI-H596	0.909	1.09	0.766	0.454	0.483	0.347	0.636	0.705	0.706	0.731	0.526	1.13	1.09	1.11	1.09	1.19	0.888	0.77	0.822
NCI-H647	0.383	0.477	0.36	1.1	1.43	0.698	0.409	0.539	0.578	0.411	0.486	1.2	1.07	1.21	0.953	0.631	0.502	0.54	0.44
NCI-H650	0.309	0.283	0.267	1.13	1.19	0.942	0.469	0.424	1.29	0.369	0.361	0.665	1.06	0.934	0.87	1.25	0.462	0.465	0.429
NCI-H661	0.614	0.588	0.496	0.812	0.526	0.613	0.811	0.817	0.774	0.821	0.784	0.526	0.521	0.44	0.445	0.556	0.286	0.263	0.247
NCI-H727	0.915	0.868	0.768	0.65	0.72	0.495	1.28	0.908	1.28	1.21	1.05	1.02	0.968	0.655	0.917	0.9	0.585	0.714	0.605
